From US12275694B2, “Pharmaceutically acceptable salts of [2-(3-fluoro-5-methane-sulfonylphenoxy)ethyl](propyl)amine and uses thereof” (INTEGRATIVE RESEARCH LABORATORIES SWEDEN AB, priority 2019, dated 2025)
Read-outs that look alike come from different tables or passages of the source.

Legend:
[1] = Method: The temperature was 25° C. using step intervals of 10% between 0% and 95% RH in two consecutive cycles.
[2] = Hygroscopicity test, weighed samples kept at varied humidity at 30° C. for one week; assay type: physicochemical; conditions: for Hygroscopicity (in words): any tested relative humidity
Method: After one week, the samples were weighed again and based on the original weight the percentage weight difference was calculated.

[3] = Plasma concentration of the drug in the human clinical study; assay type: in vivo; conditions: 2 hours after administration in the morning, 2.5 mg b.i.d.-10 mg b.i.d., patients
[4] = system: Parkinson's patients with L-dopa induced dyskinesia (LIDs); test: Human clinical study, 24-hour patient home diaries, good ON time; assay type: in vivo; conditions: 2.0 mg up to 10 mg such as 2.5, 5.0 or 7.5 mg, compared with an amount equal to or above 10 mg
Text: Home diaries have gained wide acceptance as endpoints for clinical development of therapeutics aiming to reduce treatment-related motor complications. Motor fluctuations are associated with compromise in activities of daily living and health-related quality of life. In clinical trials performed by Integrative Research Laboratories Sweden AB patients record their 24-hours motor function in 30-minute intervals, beginning at midnight. For each 30-minute interval the patient rates the state he or she has been in for the past 30 minutes; OFF, ON without troublesome dyskinesia or ON with troublesome dyskinesia. The patient also denoted the time when he or she has been asleep.
In general, an “OFF” time reduction or “good ON-time” increase of 1 hour may be considered clinically significant and has been used as an assumption in power calculations in clinical trials. […]
A valid diary is defined as not having more than 2 hours of invalid data entries (4 invalid entries) over a given 24-hour period. An invalid diary entry is defined as more than one entry recorded in each half-hour interval, an unreadable entry, or the absence of an entry in each half-hour interval. […]

## CCCNCCOc1cc(F)cc(S(C)(=O)=O)c1.Cl [hydrochloric acid salt, hydrochloric acid salt of [2-(3-fluoro-5-methanesulfonylphenoxy)-ethyl](propyl)amine]
[1]; 95% relative humidity and 25° C., DVS
  Weight gain: approximately 3%
[1]; high relative humidities
  Hygroscopicity (in words): hygroscopic at high relative humidities

## CCCNCCOc1cc(F)cc(S(C)(=O)=O)c1 [Example 7, [2-(3-fluoro-5-methanesulfonylphenoxy)ethyl](propyl)amine hemi-L-tartrate]
[2]
  Hygroscopicity (in words): very low hygroscopicity
[2]; listed as L-tartaric acid salt
  Hygroscopicity (in words): not hygroscopic at any relative humidities
[2]; even at very high relative humidity such as 73%, 75%, 83% or 97% for 7 days at 30° C.
  Weight change: ≤ 0.3%
[3]
  concentration at 2 h: 50 to 200 nM

## CCCNCCOc1cc(F)cc(S(C)(=O)=O)c1 [Formula IV]
[2]
  Hygroscopicity (in words): not being hygroscopic
[2]; at any humidity such as any relative humidity
  Weight change: ≤ 0.3 % by weight

## CCCNCCOc1cc(F)cc(S(C)(=O)=O)c1 [Example 2, [2-(3-fluoro-5-methanesulfonylphenoxy)ethyl](propyl)amine]
[4]
  Good ON time (in words): increased the good ON time to a larger extent
